How the values were obtained:
[1] = target: Poly [ADP-ribose] polymerase 1 (Homo sapiens, UniProt P09874); test: In vitro inhibitory concentration against human recombinant Poly (ADP-ribose) polymerase 1
[2] = Concentration in plasma was measured at 0.5 hrs in mice following po administration of 32 mg/kg; type: ADME, organism-based; parameters: dose 32 mg/kg, route oral; conditions: mouse
[3] = Concentration in plasma was measured at 2 hrs in mice following po administration of 32 mg/kg; type: ADME, organism-based; parameters: dose 32 mg/kg, route oral; conditions: mouse
[4] = Concentration in brain tissue was measured at 2 hrs in mice following po administration of 32 mg/kg; type: ADME, organism-based; parameters: dose 32 mg/kg, route oral; conditions: mouse
[5] = Concentration in brain tissue was measured at 0.5 hrs in mice following po administration of 32 mg/kg; type: ADME, organism-based; parameters: dose 32 mg/kg, route oral; conditions: mouse
[6] = Ratio of brain tissue concentration to that of plasma concentration; type: ADME; conditions: mouse; for Kp: brain / plasma
[7] = Concentration in plasma was measured at 0.5 hrs in mice following ip administration of 32 mg/kg; type: ADME, organism-based; parameters: dose 32 mg/kg, route intraperitoneal; conditions: mouse
[8] = Concentration in brain tissue was measured at 0.5 hrs in mice following ip administration of 32 mg/kg; type: ADME, organism-based; parameters: dose 32 mg/kg, route intraperitoneal; conditions: mouse
[9] = Half-life in rat after iv administration of 10 mg/kg; type: ADME, organism-based; parameters: dose 10 mg/kg, route intravenous; conditions: in vivo
[10] = Bioavailability in dog after iv administration of 1.0 mg/kg; type: ADME, organism-based, Canis lupus familiaris; conditions: in vivo, read-out: Bioavailabiility
[11] = Half-life in dog after iv administration of 1.0 mg/kg; type: ADME, organism-based, Canis lupus familiaris; parameters: dose 1 mg/kg, route intravenous; conditions: in vivo
[12] = Cmax value in mouse after po administration of 10 mg/kg; type: ADME, organism-based; parameters: dose 10 mg/kg, route oral; conditions: in vivo
[13] = Clearance of compound in dog after iv administration of 1.0 mg/kg; type: ADME, organism-based, Canis lupus familiaris; parameters: dose 1 mg/kg, route intravenous; conditions: in vivo
[14] = Clearance in mouse liver microsomes when incubated at 37 degree Celsius in the presence of NADPH-generating system
[15] = AUC value in rat after po administration of 10 mg/kg; type: ADME, organism-based, Plasma; parameters: dose 10 mg/kg, route oral; conditions: in vivo
[16] = Bioavailability in rat after iv administration of 10 mg/kg; type: ADME, organism-based; conditions: in vivo, read-out: Bioavailabiility
[17] = Clearance in dog liver microsomes when incubated at 37 degree Celsius in the presence of NADPH-generating system
[18] = Cmax value in rat after po administration of 10 mg/kg; type: ADME, organism-based; parameters: dose 10 mg/kg, route oral; conditions: in vivo
[19] = Clearance in human liver microsomes when incubated at 37 degree Celsius in the presence of NADPH-generating system
[20] = Clearance of compound in rat after iv administration of 10 mg/kg; type: ADME, organism-based; parameters: dose 10 mg/kg, route intravenous; conditions: in vivo
[21] = AUC value in dog after po administration of 1.0 mg/kg; type: ADME, organism-based, Canis lupus familiaris, Plasma; parameters: dose 1 mg/kg, route oral; conditions: in vivo
[22] = Clearance in rat liver microsomes when incubated at 37 degree Celsius in the presence of NADPH-generating system
[23] = Cmax value in dog after po administration of 1.0 mg/kg; type: ADME, organism-based, Canis lupus familiaris; parameters: dose 1 mg/kg, route oral; conditions: in vivo

Poly [ADP-ribose] polymerase 1, sequence (P09874 whole entry): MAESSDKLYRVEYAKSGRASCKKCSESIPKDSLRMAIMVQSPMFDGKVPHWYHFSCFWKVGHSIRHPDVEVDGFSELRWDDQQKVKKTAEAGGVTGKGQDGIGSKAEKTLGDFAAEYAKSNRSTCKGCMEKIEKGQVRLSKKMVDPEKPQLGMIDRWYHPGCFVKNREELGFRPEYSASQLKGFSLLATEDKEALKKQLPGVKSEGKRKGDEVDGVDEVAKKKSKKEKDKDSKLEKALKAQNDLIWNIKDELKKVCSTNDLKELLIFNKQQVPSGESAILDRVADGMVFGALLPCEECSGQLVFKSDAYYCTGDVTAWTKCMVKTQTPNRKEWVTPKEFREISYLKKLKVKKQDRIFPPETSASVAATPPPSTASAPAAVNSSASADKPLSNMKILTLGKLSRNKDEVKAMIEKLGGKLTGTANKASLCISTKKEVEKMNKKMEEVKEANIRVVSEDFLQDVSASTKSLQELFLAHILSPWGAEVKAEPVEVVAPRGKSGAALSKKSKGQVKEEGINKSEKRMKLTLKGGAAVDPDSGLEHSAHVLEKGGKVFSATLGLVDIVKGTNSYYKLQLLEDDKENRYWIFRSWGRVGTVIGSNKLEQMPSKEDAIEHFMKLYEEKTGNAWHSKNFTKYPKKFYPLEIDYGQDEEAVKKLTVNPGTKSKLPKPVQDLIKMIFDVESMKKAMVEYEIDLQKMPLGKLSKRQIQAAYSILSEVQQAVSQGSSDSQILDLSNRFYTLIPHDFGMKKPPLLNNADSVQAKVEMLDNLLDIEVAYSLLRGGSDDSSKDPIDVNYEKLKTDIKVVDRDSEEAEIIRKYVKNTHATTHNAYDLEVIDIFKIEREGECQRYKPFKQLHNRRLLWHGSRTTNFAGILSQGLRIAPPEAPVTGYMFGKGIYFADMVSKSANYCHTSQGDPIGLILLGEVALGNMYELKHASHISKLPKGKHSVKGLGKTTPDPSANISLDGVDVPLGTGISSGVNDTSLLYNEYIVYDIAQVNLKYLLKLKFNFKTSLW

With `O=c1[nH]c(CCCN2CC=C(c3ccc(O)cc3)CC2)nc2ccccc12` the IC50 [1] was 12 nM.
`Oc1nc(CCCN2CC=C(c3ccccc3)CC2)nc2cccc(F)c12` showed a concentration at 0.5 h [2] of 370 ng/mL, a concentration at 2 h [3] of 140 ng/mL and a concentration at 2 h [4] of 220 ng/g. For the same compound, the concentration at 0.5 h [5] was 1620 ng/g.
`O=c1[nH]c(CCCN2CC=C(c3ccc(C(F)(F)F)cc3)CC2)nc2ccccc12` gave a concentration at 0.5 h [2] of 6800 ng/mL, a concentration at 2 h [3] of 3270 ng/mL and a concentration at 2 h [4] of 19500 ng/g. For the same compound, the concentration at 0.5 h [5] was 23400 ng/g and the IC50 [1] was 25 nM.
In the case of `COc1ccccc1C1=CCN(CCCc2nc(O)c3ccccc3n2)CC1`, the IC50 [1] is reported as 170 nM.
`Cc1cccc2c(=O)[nH]c(CCCN3CC=C(c4ccccc4)CC3)nc12` gave a concentration at 0.5 h [2] of 940 ng/mL, a concentration at 2 h [3] of 400 ng/mL and a concentration at 2 h [4] of 730 ng/g. For the same compound, the concentration at 0.5 h [5] was 2540 ng/g and the IC50 [1] was 14 nM.
For `O=c1[nH]c(CCCN2CC=C(c3ccccc3)CC2)nc2c(Cl)cccc12`, the concentration at 0.5 h [2] was 1280 ng/mL, the concentration at 2 h [3] was 1200 ng/mL and the concentration at 2 h [4] was 8430 ng/g. The concentration at 0.5 h [5] was 7990 ng/g and the IC50 [1] was 26 nM.
`Oc1nc(CCCN2CCC3=C(CCc4ccccc43)C2)nc2ccccc12` showed an IC50 [1] of 12 nM.
`O=c1[nH]c(=O)n(CCCCN2CC=C(c3ccccc3)CC2)c2cccc(F)c12` showed a Kp [6] of 0.86, a concentration at 0.5 h [7] of 700 ng/mL and a concentration at 0.5 h [8] of 600 ng/g.
`Oc1nc(CCCN2CC=C(c3ccc(-c4ccccc4)cc3)CC2)nc2ccccc12` gave an IC50 [1] of 34 nM.
`Oc1nc(CCCN2CC=C(c3ccccc3)CC2)nc2ccc(Cl)cc12` gave a concentration at 0.5 h [2] of 16200 ng/mL, a concentration at 2 h [3] of 15500 ng/mL and a concentration at 2 h [4] of 14200 ng/g. For the same compound, the concentration at 0.5 h [5] was 18600 ng/g and the IC50 [1] was 27 nM.
`O=c1[nH]c(CCCC2CC=C(c3ccccc3)CC2)nc2ccccc12` (stereo not given) showed an IC50 [1] of over 1000 nM.
For `Oc1nc(CCCN2CC=C(c3ccccc3F)CC2)nc2ccccc12`, the IC50 [1] was 37 nM.
In the case of `O=c1[nH]c(CCCN2CC=C(c3ccccc3)CC2)nc2c(Cl)cc(Cl)cc12`, the IC50 [1] is reported as 39 nM.
For `O=c1[nH]c(CCCN2CC=C(c3ccc(Cl)cc3)CC2)nc2ccccc12`, the concentration at 0.5 h [2] was 12100 ng/mL, the concentration at 2 h [3] was 2780 ng/mL and the concentration at 2 h [4] was 9410 ng/g. For the same compound, the concentration at 0.5 h [5] was 23900 ng/g and the IC50 [1] was 23 nM.
For `Oc1nc(CCCN2CCN(c3ccccc3)CC2)nc2ccccc12`, the concentration at 0.5 h [2] was 2270 ng/mL, the concentration at 2 h [3] was 530 ng/mL and the concentration at 2 h [4] was 300 ng/g. The concentration at 0.5 h [5] was 2850 ng/g.
With `Oc1nc(CCCN2CC=C(c3ccc(-[n+]4ccccc4)cc3)CC2)nc2ccccc12` the concentration at 0.5 h [2] was 14100 ng/mL, the concentration at 2 h [3] was 620 ng/mL and the concentration at 2 h [4] was 300 ng/g. The concentration at 0.5 h [5] was 2760 ng/g and the IC50 [1] was 12 nM.
With `O=c1[nH]c(CCCN2CC=C(c3ccc(F)cc3)CC2)nc2c(Cl)cccc12` the half-life [9] was 1.4 h, the bioavailability [10] was 70% and the half-life [11] was 6 h. For the same compound, the Cmax [12] was 300 ng/mL, the Kp [6] was 5.6 and the Ratio ([6]; plasma) was 4.2. The concentration at 0.5 h [2] was 1000 ng/mL, the clearance [13] was 4.8 mL/min/kg and the CLint scaled [14] was 2250 mL/min/kg. For the same compound, the AUC [15] was 2.52 µg/h/mL, the bioavailability [16] was 20% and the concentration at 2 h [3] was 500 ng/mL. It also gave a CLint scaled [17] of 141 mL/min/kg, a Cmax [18] of 1330 ng/mL and a CLint scaled [19] of 156 mL/min/kg. The clearance [20] was 13.5 mL/min/kg, the AUC [21] was 3.16 µg/h/mL and the concentration at 2 h [4] was 2100 ng/g. It also gave a CLint scaled [22] of 1240 mL/min/kg, a concentration at 0.5 h [5] of 5600 ng/g and a Cmax [23] of 280 ng/mL. It also gave an IC50 [1] of 13 nM.
Work on `COc1cccc2c(=O)[nH]c(CCCN3CC=C(c4ccccc4)CC3)nc12` yielded a concentration at 0.5 h [2] of 240 ng/mL, a concentration at 0.5 h [5] of 1150 ng/g and an IC50 [1] of 26 nM.
Work on `O=c1[nH]c(CCCN2CCC(c3ccccc3)CC2)nc2ccccc12` yielded a concentration at 0.5 h [2] of 250 ng/mL, a concentration at 2 h [4] of 100 ng/g and a concentration at 0.5 h [5] of 370 ng/g. For the same compound, the IC50 [1] was 46 nM.
`Oc1nc(CCCN2CC=C(c3ccccc3)CC2)nc2cc(Cl)ccc12` showed a concentration at 0.5 h [2] of 80 ng/mL, a concentration at 2 h [3] of 510 ng/mL and a concentration at 2 h [4] of 2660 ng/g. For the same compound, the concentration at 0.5 h [5] was 6120 ng/g and the IC50 [1] was 250 nM.
With `Cc1nc2cccc(Cl)c2c(=O)[nH]1` the Kp [6] was 0.82, the concentration at 0.5 h [7] was 6700 ng/mL and the concentration at 0.5 h [8] was 5500 ng/g.
In the case of `CCc1cccc2c(O)nc(CCCN3CC=C(c4ccccc4)CC3)nc12`, the IC50 [1] is reported as 66 nM.
Compound `N#Cc1ccc(C2=CCN(CCCc3nc(O)c4ccccc4n3)CC2)cc1` has a concentration at 0.5 h [2] of 20000 ng/mL, a concentration at 2 h [3] of 5200 ng/mL and a concentration at 2 h [4] of 540 ng/g. It also gave a concentration at 0.5 h [5] of 4500 ng/g and an IC50 [1] of 6 nM.
In the case of `Oc1nc(CCCN2CCc3c([nH]c4ccccc34)C2)nc2ccccc12`, the concentration at 0.5 h [2] is reported as 77200 ng/mL, the concentration at 2 h [3] is reported as 9510 ng/mL and the concentration at 2 h [4] is reported as 150 ng/g. For the same compound, the concentration at 0.5 h [5] was 580 ng/g and the IC50 [1] was 74 nM.
`COc1ccc(C2=CCN(CCCc3nc(O)c4ccccc4n3)CC2)cc1` gave a concentration at 0.5 h [2] of 6050 ng/mL, a concentration at 2 h [3] of 1670 ng/mL and a concentration at 2 h [4] of 3750 ng/g. It also gave a concentration at 0.5 h [5] of 5610 ng/g and an IC50 [1] of 8.3 nM.
Compound `Cc1ccc(C2=CCN(CCCc3nc(O)c4ccccc4n3)CC2)cc1` has a concentration at 0.5 h [2] of 5400 ng/mL, a concentration at 2 h [3] of 840 ng/mL and a concentration at 2 h [4] of 2340 ng/g. For the same compound, the concentration at 0.5 h [5] was 5310 ng/g and the IC50 [1] was 17 nM.
Compound `O=c1[nH]c(CCCN2CC=C(c3ccccc3)CC2)nc2ccccc12` has a concentration at 0.5 h [2] of 680 ng/mL, a concentration at 2 h [3] of 150 ng/mL and a concentration at 2 h [4] of 370 ng/g. For the same compound, the concentration at 0.5 h [5] was 1900 ng/g and the IC50 [1] was 16 nM.
For `O=c1[nH]c(CCCN2CC=C(c3cccc(F)c3)CC2)nc2ccccc12`, the IC50 [1] was 23 nM.
For `O=c1[nH]c(CCCN2CC=C(c3ccc(F)cc3)CC2)nc2ccccc12`, the concentration at 0.5 h [2] was 6830 ng/mL, the concentration at 2 h [3] was 3480 ng/mL and the concentration at 2 h [4] was 1160 ng/g. The concentration at 0.5 h [5] was 3540 ng/g and the IC50 [1] was 8.9 nM.
In the case of `O=c1[nH]c(CCCN2CC=C(c3ccccc3)CC2)nc2cccc(Cl)c12`, the Kp [6] is reported as 5.8, the concentration at 0.5 h [2] is reported as 4180 ng/mL and the concentration at 0.5 h [7] is reported as 1200 ng/mL. The concentration at 0.5 h [8] was 7000 ng/g, the concentration at 2 h [3] was 2170 ng/mL and the concentration at 2 h [4] was 2820 ng/g. It also gave a concentration at 0.5 h [5] of 4600 ng/g and an IC50 [1] of 65 nM.
